For one series, the system named is SKBR3 cells. Nature of the series: MTT cell viability assay on SKBR3 cells. It is filed as cell-based, human. As to conditions: for IC50: SKBR3, 48 h, ± S. D.; for cytotoxic activity in MTT screening: SKBR3 cells, 72 h (Figure 1S) and 48 h (Figure 2). An excerpt: Human MDA-MB-231 (ER–/PR–/HER2–) and SK-BR-3 (ER–/PR–/HER2+) cells were obtained from American Type Culture Collection (Rockville, MD) and cultured in Dulbecco's Modified Essential Medium (DMEM, Gibco, Life Technologies) supplemented with 10% fetal bovine serum (FBS, Gibco, Life Technologies) and 1% penicillin–streptomycin (Gibco, Life Technologies). A17 cells were established from a spontaneous lobular carcinoma that arose in an FVB/neuT mouse (Galiè et al., [2005]), and maintained in DMEM plus 20% FBS and 1% penicillin-streptomycin. Cells were cultured at 37°C under humidified atmosphere with 5% CO2.
Stock solutions were prepared for each gold(I) compound (50 mM) using dimethyl sulfoxide (DMSO) (Sigma-Aldrich) as solvent. The effects of gold(I) compounds on SKBR3, A17 and MDA-MB231 cells viability were evaluated by seeding, respectively, 10, ^*10^3, 2.5 ^*10^3, 7, ^*10^3 cells/well in 96 wells plates in complete medium (DMEM supplemented with FBS) and compared to those of cisplatin. The day after, fresh medium containing vehicle alone (DMSO, 1 % v/v final concentration) or increasing concentrations of each compound ranging from 0.1 to 100 μM was added. Cell viability was determined using a MTT [3-(4,5-dimethylthiazol-2-yl)-2,5-diphenyl-2H-tetrazolium bromide Sigma Aldrich, St. Louis, MO] assay, which is based on the conversion of MTT to formazan crystals by mitochondrial enzymes, after 24, 48, and 72 h. The formazan deposits were dissolved in DMSO and the absorbance of each well was measured at 540 nm in Multiskan Ascent 96/384 Plate Reader. Each drug concentration was evaluated with 8 replicates and each experiment was repeated three times. At the end of the experiments a dose–response curve was plotted, and the IC50 concentrations were determined. Statistical analysis was performed using One-Way ANOVA analysis of variance followed by Dunnett's Multiple Comparison Test. Quantitative data are presented as means ± SEM. Differences were considered significant at ^*P ≤ 0.0332; ^**P ≤ 0.0021; ^***P ≤ 0.0002; ^****P ≤ 0.0001.
IC50 values were calculated for each of the cell lines tested, by fitting the concentration-effect curves data obtained in the three experiments with the sigmoid-Emax model using nonlinear regression, weighted by the reciprocal of the square of the predicted effect.

The target in series [1] is T1, dihydrofolate reductase (DHFR) (Homo sapiens, UniProt P00374).
T1 construct: Cell lysates were collected using Cell Culture Lysis Reagent; endogenous in cells; host or cells: MDA-MB231 and SKBR3 (human breast cancer cells)
T1 sequence (P00374 1-187): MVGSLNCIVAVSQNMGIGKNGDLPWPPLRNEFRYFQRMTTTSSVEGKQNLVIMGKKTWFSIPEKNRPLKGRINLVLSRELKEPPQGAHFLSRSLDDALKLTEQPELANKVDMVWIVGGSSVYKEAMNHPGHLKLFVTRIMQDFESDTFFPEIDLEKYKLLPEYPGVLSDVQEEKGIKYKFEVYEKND
Nature of the series: DHFR specific enzymatic activity in lysates of treated MDA-MB231 cells. It is filed as cell-based. The note with it: 8 μM (maximum inhibition). The method, then:
SKBR3, MDA-MB-231 and A17 cells were plated onto 100 mm cell culture dishes (2 × 10^6 cells/ dish). The day after, cells were treated with vehicle alone (DMSO) as control or increasing concentrations of compound 5 and compound 6 in DMEM supplemented with 2% FBS (Invitrogen, Carlsbad, CA) for 4 h or 12 h. Representative pictures of cells treated with compound 5 or 6 at the indicated concentration for 4 or 12 h just before to take cell lysates for the enzymatic tests are reported as supplemental files. Cell lysates were collected using Cell Culture Lysis Reagent (Promega, Madison, WI) supplemented with BSA (1%) and protease inhibitors. DHFR activity was assessed by spectrophotometric assay as reported elsewhere (Wang et al., [2020]) in which the reaction rate was followed by recording the decreasing absorbance at 340 nm due to oxidation of NADPH to NADP^+, using a Shimadzu UV-2450 spectrophotometer. When necessary, because of low protein content in the lysates, the DHFR enzymatic activity was measured by a discontinuous direct HPLC assay using an Agilent 1100 system. HPLC-DAD (Agilent 1100) was used to detect and quantify the presence of NADP^+, as one of the products of DHFR catalyzed reaction, in cell lysates. Fifty microliter of the cell lysate were incubated at 37°C in a reaction mixture containing 760 μl of buffer (0.05 M Hepes pH 7.3), 20 μl of NADPH 4 mM, and 20 μl of dihydrofolate (H2F) 4 mM. The samples for HPLC analysis were prepared as follows: 50 μl aliquots of each mixture were stopped at different times (0, 5, 10, 20, 30, and 60 min) by adding 25 μl of HClO4 1.2 M; after 10 min on ice and centrifugation for 5 min at 12,000 g, 60 μl of each supernatant were neutralized by adding 17.5 μl of K2CO3 0.79 M, kept on ice and centrifuged again. Fifty microliter of the supernatant obtained were directly injected into the reversed phase column for separations of reagents and products of the enzyme catalyzed reaction. The column used is a Supelcosil LC RP 18 (4.6 × 250 mm) with pre-column SupelGuard. The HPLC settings are the same reported in Wang et al. ([2020]). The amounts of product (NADP^+) were determined from the peak areas of the HPLC-separated compounds with reference to appropriate standards. One enzyme unit is defined as the amount of enzyme which catalyzes the reduction of 1 μmol of dihydrofolate, per minute, at 37°C. Enzyme activities were normalized by the protein content, determined by the Bradford assay (Bradford, [1976]).

Where [2] appears, read: MDA-MB231, 4 h treatment, control 5.38 ± 0.38.
The mark [3] stands for this setting: MDA-MB231, 12 h treatment, control 0.64 ± 0.02.

For orientation: IC50 means the midpoint of a concentration-inhibition curve. A lower IC50 goes with greater potency in that assay.

Consider “4,5-dichloro-imidazolate-1yl-gold(I)-(triphenylphosphane) [Compound 6]”, for which, in the series with SKBR3 cells, the IC50 is 4.55 ± 0.25 µM and the “cytotoxic activity in MTT screening” value is “most active”. Further, the “Specific enzymatic activity of DHFR” value in series [1] (setting [2]) is given as 1.75 ± 0.34 mU/mg. For the same substance, in series [1] (setting [3]), the “Specific enzymatic activity of DHFR” value came out at 0.55 ± 0.002 mU/mg.
Taken in the same sequence, the figures for “4,5-dicyano-imidazolate-1yl-gold(I)-(triphenylphosphane) [Compound 5]” were 5.36 ± 0.35 µM, “most active”, 2.37 ±0.39 mU/mg and 0.42 ± 0.01 mU/mg.
